According to patent US4540699A, “N-Substituted pyridinones having histamine H2 -antagonist activity” (Smith Kline & French Laboratories Limited, priority 1982, dated 1985):

System: histamine H2 -receptors
Test: inhibition of histamine-stimulated gastric acid secretion in urethane-anaesthetised rats after intraduodenal and intravenous injection
Type: in vivo, rat
Settings: ratio intraduodenal/intravenous dose for 50% inhibition; rats anaesthetised with urethane
Experimental: The inhibition of histamine-stimulated secretion of gastric acid in rats anaesthetised with urethane was measured after administration of test compounds by intraduodenal injection and intravenous injection. For the compound of Example 2 the intraduodenal dose required to produce 50% inhibition was only 3 times the intravenous dose required to produce a similar effect, and for the compound of Example 10 the intraduodenal dose required was 10 times the intravenous dose. In contrast the compound of Example 7 of EP-A-3677 required an intraduodenal dose 500 times that of the intravenous dose required to inhibit acid secretion by 50%. Good activity after intraduodenal injection is indicative that there will good activity after oral administration.

Row | SMILES | intraduodenal dose required to produce 50% inhibition of acid secretion relative to the intravenous dose [times]
1 | Cn1ccc(Cc2cnc(NCCCOc3cccc(CN4CCCCC4)c3)[nH]c2=O)cc1=O [Example 10, 2-[3-[3-(Piperidinomethyl)phenoxy]propylamino]-5-(1-methyl-2-oxopyridin-4-ylmethyl)pyrimidin-4-one] | 10
2 | CN(C)Cc1ccc(CSCCNc2ncc(Cc3ccn(C)c(=O)c3)c(=O)[nH]2)o1 [Example 2, 2-[2-(2-Dimethylaminomethyl-5-furylmethylthio)ethylamino]-5-(1-methyl-2-oxopyridin-4-ylmethyl)pyrimidin-4-one] | 3
